Measurements published in patent US20260083851A1 (AVILAR THERAPEUTICS, INC., priority 2022, published 2026).

Biological target: T1, ASGP receptor (biotinylated ASGPR) (Homo sapiens, UniProt P07306)
T1 construct: biotin (biotinylated)
T1 sequence (P07306 1-291): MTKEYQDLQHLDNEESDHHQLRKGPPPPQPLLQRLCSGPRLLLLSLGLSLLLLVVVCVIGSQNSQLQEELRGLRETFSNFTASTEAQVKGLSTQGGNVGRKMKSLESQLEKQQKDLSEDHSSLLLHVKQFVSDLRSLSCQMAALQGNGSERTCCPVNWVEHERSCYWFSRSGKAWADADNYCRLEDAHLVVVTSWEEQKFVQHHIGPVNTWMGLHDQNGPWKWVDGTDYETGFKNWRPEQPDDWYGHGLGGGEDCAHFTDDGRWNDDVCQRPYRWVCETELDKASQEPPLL
Format: binding
Details: SPR, Biacore 8K, 25° C.; Table 1A; read-out: ASGPR KD

Compound | Kd [µM]
[N-]=[N+]=NCCCCCC(=O)NC(COCCC(=O)NCCOCCOCCOCCOC[C@H]1OC[C@H](Nc2cncc(C(F)(F)F)n2)[C@@H](O)[C@H]1O)(COCCC(=O)NCCOCCOCCOCCOC[C@H]1OC[C@H](Nc2cncc(C(F)(F)F)n2)[C@@H](O)[C@H]1O)COCCC(=O)NCCOCCOCCOCCOC[C@H]1OC[C@H](Nc2cncc(C(F)(F)F)n2)[C@@H](O)[C@H]1O [A87, 3,3′-((2-(6-azidohexanamido)-2-(1-((2R,3R,4R,5S)-3,4-dihydroxy-5-((6-(trifluoromethyl)pyrazin-2-yl)amino)tetrahydro-2H-pyran-2-yl)-15-oxo-2,5,8,11,18-pentaoxa-14-azanonadecan-19-yl)propane-1,3-diyl)bis(oxy))bis(N-(1-((2R,3R,4R,5S)-3,4-dihydroxy-5-((6-(trifluoromethyl)pyrazin-2-yl)amino)tetrahydro-2H-pyran-2-yl)-2,5,8,11-tetraoxatridecan-13-yl)propanamide)] | < 10
O=C(O)c1ccc(N2CCC(CN3CCN(C[C@H]4OC[C@H](Nc5ccnc(C(F)(F)F)n5)[C@@H](O)[C@H]4O)CC3)CC2)cc1 [A97, 4-(4-((4-(((2R,3R,4R,5S)-3,4-dihydroxy-5-((2-(trifluoromethyl)pyrimidin-4-yl)amino)tetrahydro-2H-pyran-2-yl)methyl)piperazin-1-yl)methyl)piperidin-1-yl)benzoic acid] | < 10
O=C(O)c1ccc(N2CCC(CN3CCN(C[C@H]4OC[C@H](Nc5nc(C(F)(F)F)ccc5F)[C@@H](O)[C@H]4O)CC3)CC2)cc1 [A101, 4-(4-((4-(((2R,3R,4R,5S)-5-((3-fluoro-6-(trifluoromethyl)pyridin-2-yl)amino)-3,4-dihydroxytetrahydro-2H-pyran-2-yl)methyl)piperazin-1-yl)methyl)piperidin-1-yl)benzoic acid] | < 10
NCCCCCC(=O)NC(COCCC(=O)NCCOCCOCCOCCOC[C@H]1OC[C@H](Nc2nccc(C(F)(F)F)n2)[C@@H](O)[C@H]1O)COCCC(=O)NCCOCCOCCOCCOC[C@H]1OC[C@H](Nc2nccc(C(F)(F)F)n2)[C@@H](O)[C@H]1O [A45, 3,3′-((2-(6-aminohexanamido)propane-1,3-diyl)bis(oxy))bis(N-(1-((2R,3R,4R,5S)-3,4-dihydroxy-5-((4-(trifluoromethyl)pyrimidin-2-yl)amino)tetrahydro-2H-pyran-2-yl)-2,5,8,11-tetraoxatridecan-13-yl)propanamide)] | < 10

The next lines start with the values.

Kd [µM] | Compound
< 10 | O=C(NC[C@H]1OC[C@H](Nc2cncc(C(F)(F)F)n2)[C@@H](O)[C@H]1O)c1cc2ccccc2[nH]1 [A14, N-(((2R,3R,4R,5S)-3,4-dihydroxy-5-((6-(trifluoromethyl)pyrazin-2-yl)amino)tetrahydro-2H-pyran-2-yl)methyl)-1H-indole-2-carboxamide]
< 10 | O=C(O)c1ccc(C(=O)NC[C@H]2OC[C@H](Nc3cncc(C(F)(F)F)n3)[C@@H](O)[C@H]2O)cc1 [A34, 4-((((2R,3R,4R,5S)-3,4-dihydroxy-5-((6-(trifluoromethyl)pyrazin-2-yl)amino)tetrahydro-2H-pyran-2-yl)methyl)carbamoyl)benzoic acid]
< 10 | O=C(NC[C@H]1OC[C@H](Nc2cncc(C(F)(F)F)n2)[C@@H](O)[C@H]1O)c1cccnc1 [A63, N-(((2R,3R,4R,5S)-3,4-dihydroxy-5-((6-(trifluoromethyl)pyrazin-2-yl)amino)tetrahydro-2H-pyran-2-yl)methyl)nicotinamide]
< 10 | O=C(O)C1CCC(C(=O)NC[C@H]2OC[C@H](Nc3cncc(C(F)(F)F)n3)[C@@H](O)[C@H]2O)CC1 (stereo partly drawn) [A32, 4-((((2R,3R,4R,5S)-3,4-dihydroxy-5-((6-(trifluoromethyl)pyrazin-2-yl)amino)tetrahydro-2H-pyran-2-yl)methyl)carbamoyl)cyclohexane-1-carboxylic acid]
< 10 | O=C(NC[C@H]1OC[C@H](Nc2cncc(C(F)(F)F)n2)[C@@H](O)[C@H]1O)c1cnc2cc[nH]c2n1 [A82, N-(((2R,3R,4R,5S)-3,4-dihydroxy-5-((6-(trifluoromethyl)pyrazin-2-yl)amino)tetrahydro-2H-pyran-2-yl)methyl)-5H-pyrrolo[2,3-b]pyrazine-3-carboxamide]
< 10 | O=C(O)CN1CCC(N2CCC(C(=O)NC[C@H]3OC[C@H](Nc4cncc(C(F)(F)F)n4)[C@@H](O)[C@H]3O)CC2)CC1 [A62, 2-(4-((((2R,3R,4R,5S)-3,4-dihydroxy-5-((6-(trifluoromethyl)pyrazin-2-yl)amino)tetrahydro-2H-pyran-2-yl)methyl)carbamoyl)-[1,4′-bipiperidin]-1′-yl)acetic acid]
< 10 | O=C(NC[C@H]1OC[C@H](Nc2cncc(C(F)(F)F)n2)[C@@H](O)[C@H]1O)c1cnc(-c2ccccc2)cn1 [A83, N-(((2R,3R,4R,5 S)-3,4-dihydroxy-5-((6-(trifluoromethyl)pyrazin-2-yl)amino)tetrahydro-2H-pyran-2-yl)methyl)-5-phenylpyrazine-2-carboxamide]
< 10 | O=C(NC[C@H]1OC[C@H](Nc2cncc(C(F)(F)F)n2)[C@@H](O)[C@H]1O)c1cnc2ccccc2n1 [A71, N-(((2R,3R,4R,5S)-3,4-dihydroxy-5-((6-(trifluoromethyl)pyrazin-2-yl)amino)tetrahydro-2H-pyran-2-yl)methyl)quinoxaline-2-carboxamide]
< 10 | O=C(NC[C@H]1OC[C@H](Nc2cncc(C(F)(F)F)n2)[C@@H](O)[C@H]1O)c1ncccn1 [A4, N-(((2R,3R,4R,5S)-3,4-dihydroxy-5-((6-(trifluoromethyl)pyrazin-2-yl)amino)tetrahydro-2H-pyran-2-yl)methyl)pyrimidine-2-carboxamide]

Same assay, conditions: SPR, Biacore 8K, 25° C.; Table 1C, numeric bound; read-out: ASGPR KD

Compound | Kd [µM]
OC[C@H]1OC[C@H](Nc2ncc3nc[nH]c3n2)[C@@H](O)[C@H]1O [A197, (2R,3R,4R,5S)-5-((9H-purin-2-yl)amino)-2-(hydroxymethyl)tetrahydro-2H-pyran-3,4-diol] | > 30
OC[C@H]1OC[C@H](Nc2ncc3cn[nH]c3n2)[C@@H](O)[C@H]1O [A183, (2R,3R,4R,5S)-5-((1H-pyrazolo[3,4-d]pyrimidin-6-yl)amino)-2-(hydroxymethyl)tetrahydro-2H-pyran-3,4-diol] | > 30

Same assay, conditions: SPR, Biacore 8K, 25° C.; Table 1C; read-out: ASGPR KD

Compound | Kd [µM]
[O-][S+](C[C@H]1OC[C@H](Oc2cccc(C(F)(F)F)n2)[C@@H](O)[C@H]1O)c1ccccc1 (stereo partly drawn) [A311] | < 10
O[C@@H]1[C@H](O)[C@@H](Nc2cccc(C(F)(F)F)n2)CO[C@@H]1CN1CCCC1 [A240] | < 10
CC(C)(C)OC(=O)N1CC2CN(C[C@H]3OC[C@H](Oc4cccc(C(F)(F)F)n4)[C@@H](O)[C@H]3O)CC21 (stereo partly drawn) [A261] | < 10
O[C@@H]1[C@H](O)[C@@H](Oc2cccc(C(F)(F)F)n2)CO[C@@H]1COc1ccc(-c2ccccc2)cc1 [A190, (2R,3R,4S,5S)-2-(([1,1′-biphenyl]-4-yloxy)methyl)-5-((6-(trifluoromethyl)pyridin-2-yl)oxy)tetrahydro-2H-pyran-3,4-diol] | < 10
COC(=O)c1ccc(C#C[C@H]2O[C@H](C)[C@H](O)[C@H](O)[C@H]2Oc2cccc(C(F)(F)F)n2)nn1 [A321] | < 10
C[C@H]1O[C@@H](c2ncncc2F)[C@H](Oc2cccc(C(F)(F)F)n2)[C@@H](O)[C@H]1O [A337] | < 10
O=C(O)c1ccc(OC[C@H]2OC[C@H](Oc3cccc(C(F)(F)F)n3)[C@@H](O)[C@H]2O)nn1 [A246] | < 10
CC(C)(C)OC(=O)N1CC2CN(C[C@H]3OC[C@H](Oc4cccc(C(F)(F)F)n4)[C@@H](O)[C@H]3O)CC2C1 (stereo partly drawn) [A262] | < 10
O[C@@H]1[C@H](O)[C@@H](Oc2cccc(C(F)(F)F)n2)CO[C@@H]1CN1CCCCC1 [A233, (2R,3R,4S,5S)-2-(piperidin-1-ylmethyl)-5-((6-(trifluoromethyl)pyridin-2-yl)oxy)tetrahydro-2H-pyran-3,4-diol] | < 10
O=C1c2c(F)cccc2CN1C[C@H]1OC[C@H](Oc2cccc(C(F)(F)F)n2)[C@@H](O)[C@H]1O [A272] | < 10

Continued, values first:

Kd [µM] | Compound
< 10 | O[C@@H]1[C@H](O)[C@@H](Oc2cncc(C(F)(F)F)n2)CO[C@@H]1COc1ccc(Br)c(F)c1 [A210, (2R,3R,4S,5S)-2-((4-bromo-3-fluorophenoxy)methyl)-5-((6-(trifluoromethyl)pyrazin-2-yl)oxy)tetrahydro-2H-pyran-3,4-diol]
< 10 | O=C(O)c1ccc(OC[C@H]2OC[C@H](Nc3cncc(C(F)(F)F)n3)[C@@H](O)[C@H]2O)nn1 [A186, 6-(((2R,3R,4R,5S)-3,4-dihydroxy-5-((6-(trifluoromethyl)pyrazin-2-yl)amino)tetrahydro-2H-pyran-2-yl)methoxy)pyridazine-3-carboxylic acid]

Same assay, conditions: SPR, Biacore 8K, 25° C.; Table 1D; read-out: ASGPR KD

Compound | Kd [µM]
O[C@@H]1[C@@H](Oc2cccc(C(F)(F)F)n2)CN(c2ccncn2)C[C@@H]1O [Compound A248] | < 10
CN(c1cncc(C(F)(F)F)n1)[C@H]1CNC[C@H](O)[C@@H]1O [A365] | < 10
CC(=O)N[C@H]1CN(C(=O)CCCCC(=O)OCc2ccccc2)C[C@H](O)[C@@H]1O [A407] | 10 to 100
O=C(O)c1ccc(C(=O)N2C[C@H](Nc3cncc(C(F)(F)F)n3)[C@@H](O)[C@@H](O)C2)nc1 [A392] | < 10
O[C@@H]1[C@H](O)[C@@H](Oc2cncc(C(F)(F)F)n2)CO[C@@H]1COc1cnccn1 [A421] | < 10

Second part, the molecule after the results:

Kd [µM] | Compound
< 10 | O[C@@H]1[C@@H](Nc2cncc(C(F)(F)F)n2)CNC[C@@H]1O [A362]
< 10 | O=C(c1ccccc1)N1C[C@H](Nc2cncc(C(F)(F)F)n2)[C@@H](O)[C@@H](O)C1 [A422]

Same assay, conditions: SPR, Biacore 8K, 25° C.; Table 1E; read-out: ASGPR KD

Compound | Kd [µM]
C[C@H]1O[C@H](CO)[C@H](Oc2cccc(C(F)(F)F)n2)[C@@H](O)[C@H]1O [A438] | < 10
C[C@H]1O[C@H](COc2ccc(C(=O)O)nn2)[C@H](Oc2cccc(C(F)(F)F)n2)[C@@H](O)[C@H]1O [A444] | < 10
